The values that follow are results of earlier work, collected in patent US20260210975A1, “DIAGNOSIS AND TREATMENT OF LONG-COVID” (priority 2022, published 2026).

The target in the data set is KCNH2 (Homo sapiens, UniProt Q12809).

Read-outs that look alike come from different tables or passages of the source.

Sequence of KCNH2 (Q12809 whole entry): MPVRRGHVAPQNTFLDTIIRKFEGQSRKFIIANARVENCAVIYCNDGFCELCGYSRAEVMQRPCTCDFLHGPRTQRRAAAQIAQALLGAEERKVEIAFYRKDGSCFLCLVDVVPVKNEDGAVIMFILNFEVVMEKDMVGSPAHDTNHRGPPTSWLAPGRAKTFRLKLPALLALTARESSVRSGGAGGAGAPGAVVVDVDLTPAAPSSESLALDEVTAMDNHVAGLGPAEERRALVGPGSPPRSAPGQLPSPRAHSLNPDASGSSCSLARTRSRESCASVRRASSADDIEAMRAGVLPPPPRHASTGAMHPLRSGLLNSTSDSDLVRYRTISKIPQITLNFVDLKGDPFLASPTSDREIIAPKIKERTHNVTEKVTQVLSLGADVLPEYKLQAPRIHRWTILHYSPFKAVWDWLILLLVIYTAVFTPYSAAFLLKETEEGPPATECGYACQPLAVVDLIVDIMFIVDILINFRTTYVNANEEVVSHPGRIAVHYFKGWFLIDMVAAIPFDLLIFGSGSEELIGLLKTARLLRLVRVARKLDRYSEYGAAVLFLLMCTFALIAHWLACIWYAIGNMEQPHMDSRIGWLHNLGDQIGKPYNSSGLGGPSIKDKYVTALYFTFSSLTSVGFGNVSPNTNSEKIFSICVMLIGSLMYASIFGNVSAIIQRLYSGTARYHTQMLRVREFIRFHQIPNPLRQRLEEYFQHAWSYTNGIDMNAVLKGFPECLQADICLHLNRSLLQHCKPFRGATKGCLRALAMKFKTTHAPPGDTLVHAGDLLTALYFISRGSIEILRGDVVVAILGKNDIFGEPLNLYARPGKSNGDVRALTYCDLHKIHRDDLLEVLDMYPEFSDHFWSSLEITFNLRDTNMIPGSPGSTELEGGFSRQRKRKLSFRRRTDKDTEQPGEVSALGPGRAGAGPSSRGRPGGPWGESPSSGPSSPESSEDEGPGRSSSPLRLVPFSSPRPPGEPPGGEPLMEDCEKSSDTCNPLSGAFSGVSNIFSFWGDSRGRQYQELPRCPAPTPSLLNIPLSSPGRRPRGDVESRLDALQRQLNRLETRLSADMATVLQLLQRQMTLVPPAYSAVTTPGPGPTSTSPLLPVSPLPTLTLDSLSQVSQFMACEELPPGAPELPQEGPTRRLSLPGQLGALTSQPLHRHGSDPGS

For `Cc1cc2c(s1)Nc1ccccc1N=C2N1CCN(C)CC1` [olanzapine], the IC50 is approximately 6.01 µM.
Turning to `COc1ccc(CN(CCN(C)C)c2ccccn2)cc1` [pyrilamine], the IC50 was approximately 6 µM.
On to `C[C@@H]1CN(c2c(F)c(N)c3c(=O)c(C(=O)O)cn(C4CC4)c3c2F)C[C@H](C)N1` [sparfloxacin], for which the IC50 was approximately 18 µM.
Regarding arsenic trioxide, the IKr result (listed as weak inhibitor of KCNH2, literature value) is reported as “approximately 300 μmol/l”.
For prenylamine, the IC50 (read-out: IC50 (half maximal inhibitory concentration), KCNH2 inhibitors, literature values) is approximately 0.59 µM.
